Holding throughout (test): NCI-60 cell line screen, 48 h
In assay [1] the test system is CCRF-CEM.
The test system of assay [2] is UO-31.
Assay [3] relates to HCC 2998.
In assay [4] the test system is IGROV-1.
Assay [5] has as its system ACHN.
The subject of assay [6] is NCI-H23.
The subject of assay [7] is UACC-257.
Assay [8] concerns KM-20L2.
Assay [9] concerns SK-MEL-5.
Assay [10] deals with COLO 205.
The test system of assay [11] is SK-MEL-2.
Assay [12] concerns BT-549.
For assay [13], the system named is T47D.
Assay [14] concerns MDA-MB-435.
For assay [15], the system named is MDA-N.
For assay [16], the system named is PC-3.
In assay [17] the test system is Hs-578T.
Assay [18] deals with NCI/ADR-RES.
Assay [19] relates to MCF7.
Assay [20] relates to MDA-MB-231.

From ChEMBL document CHEMBL1201862, “PubChem BioAssay data set” (2004) come the findings set out here.

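In this assay, cells in 96-well plates receive the compound at five concentrations for 48 hours. Endpoints are linearly interpolated between the surrounding concentrations. The concentration for 50% growth inhibition is given as GI50.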 Calls of active or inactive are those of the source. No stated cut-off is given here; in the data, active = GI50 up to about 1.1 µM and inactive = higher.

`[O-][S+]1c2ccccc2N=C(c2ccc(Cl)cc2)CC1c1cccs1` (stereo unspecified): the GI50 in assay [1] is 17.3 µM (inactive); in assay [2] it was 17.7 µM (inactive); in [3] it was 16.3 µM (inactive); in assay [4], 14.8 µM (inactive); in [5], 28.2 µM (inactive); in [6], 23.8 µM (inactive). Besides, the GI50 was 23.2 µM (inactive) in assay [7], 20.9 µM (inactive) in assay [8], 19 µM (inactive) in assay [9] and 20 µM (inactive) in assay [10].

In the case of `COc1ccc(/C(Cl)=C(\C=O)c2ccc(Cl)c(Cl)c2)cc1`, the GI50 in assay [1] was 2.96 µM (inactive); in assay [2], 12.8 µM (inactive); in assay [11], 3.52 µM (inactive); in assay [4], 17 µM (inactive); in [5], 7.26 µM (inactive); in [6], 4.4 µM (inactive). Further, the GI50 in assay [8] was 11.7 µM (inactive); in assay [9], 13 µM (inactive); in assay [10], 18.8 µM (inactive).

With `O=C1CC2C(=O)N(Cc3ccccc3)C1C(S(=O)(=O)c1ccccc1)C2S(=O)(=O)c1ccccc1` (stereo unspecified), the GI50 in assay [1] is 1.11 µM (active); in assay [2] it was 10.7 µM (inactive); in assay [3] it was 8.02 µM (inactive); in [4], 20.9 µM (inactive); in [5], 1.67 µM (inactive); in assay [6], 3.25 µM (inactive). The GI50 in [7] is 1.61 µM (inactive); in assay [8], 2.4 µM (inactive); in [9], 15.7 µM (inactive); in [10], 1.69 µM (inactive).

For `C/C(=N\NC(=O)c1ccncc1)c1ccc2ccccc2c1O`, the GI50 in assay [1] was 0.232 µM (active); in assay [12], 10.8 µM (inactive); in [13] it was 1.01 µM (active); in assay [14], 8.99 µM (inactive); in assay [2], 0.838 µM (active); in assay [11], 7.69 µM (inactive). Further, the GI50 is 4.41 µM (inactive) in assay [15]; 5.6 µM (inactive) in [16]; 2.9 µM (inactive) in assay [3]; 2.29 µM (inactive) in [4]; 16.8 µM (inactive) in assay [17]; 0.993 µM (active) in assay [5]. Moreover, the GI50 in assay [18] is 1.87 µM (inactive); in [6], 3.82 µM (inactive); in assay [7] it was 2.71 µM (inactive); in assay [9] it was 1.67 µM (inactive); in [19], 1.35 µM (inactive); in [10], 0.561 µM (active). Moreover, the GI50 in assay [20] was 5.08 µM (inactive).

On to `O=C1/C(=c2\c3ccccc3n3c(=O)c4ccccc4nc23)Nc2ccccc21` [CANDIDINE], for which the GI50 was > 100 µM (inactive) in [1]; > 100 µM (inactive) in assay [12]; > 26.7 µM (inactive) in assay [13]; 18.5 µM (inactive) in assay [14]; > 21.5 µM (inactive) in assay [2]; > 100 µM (inactive) in assay [11]. The GI50 in [15] was 18.6 µM (inactive); in assay [16], > 100 µM (inactive); in assay [3], > 82.4 µM (inactive); in assay [4], > 100 µM (inactive); in assay [17] it was 29.9 µM (inactive); in assay [5], > 100 µM (inactive). Moreover, the GI50 was > 100 µM (inactive) in [18]; > 64.9 µM (inactive) in [6]; > 86.7 µM (inactive) in [7]; > 53.8 µM (inactive) in assay [9]; > 70.1 µM (inactive) in assay [19]; 58.5 µM (inactive) in assay [10]. Besides, in [20], the GI50 is > 70.3 µM (inactive).

`Cc1nc2ccc(S(=O)(=O)NS(=O)(=O)c3ccc(-c4ccccc4)cc3)cc2c(=O)n1NS(=O)(=O)c1ccc(-c2ccccc2)cc1`: the GI50 in assay [1], in [12], in assay [13], in assay [14], in assay [2] and in assay [11] was > 100 µM (inactive) throughout. Further, the GI50 was > 100 µM (inactive) in [15]; > 100 µM (inactive) in assay [16]; > 100 µM (inactive) in [3]; 38.3 µM (inactive) in assay [4]; > 100 µM (inactive) in [17]; > 100 µM (inactive) in [5]. Further, the GI50 in assay [18], in [6], in assay [7], in assay [9], in assay [19] and in [10] was > 100 µM (inactive) throughout. In assay [20], the GI50 is > 100 µM (inactive).

Consider `Cc1ccc(P(c2ccc(C)cc2)c2ccc(C)cc2)cc1`, for which the GI50 was 20.4 µM (inactive) in assay [1]; 35.4 µM (inactive) in assay [12]; 16.3 µM (inactive) in assay [13]; 19.1 µM (inactive) in assay [14]; < 0.01 µM (active) in [2]; 22.2 µM (inactive) in assay [11]. In addition, the GI50 in assay [15] is 21.9 µM (inactive); in [16], 30.6 µM (inactive); in assay [3], 16.1 µM (inactive); in assay [4], 18.8 µM (inactive); in assay [17] it was 15.5 µM (inactive); in assay [5], 23.2 µM (inactive). For the same compound, the GI50 in assay [18] is 27.5 µM (inactive); in assay [6], 27.9 µM (inactive); in [7], 22.1 µM (inactive); in assay [9], 16.6 µM (inactive); in assay [19], 31.3 µM (inactive); in [10] it was 14.5 µM (inactive). Besides, the GI50 in [20] was 25.9 µM (inactive).

On to `CCN1CCC(O)(c2ccc(Oc3ccc(C)cc3)cc2)C(C(=O)c2ccc(Oc3ccc(C)cc3)cc2)C1` (stereo unspecified), for which the GI50 in assay [1] was 5.13 µM (inactive); in [12] it was 10.6 µM (inactive); in [13], 12.8 µM (inactive); in assay [14] it was 11.6 µM (inactive); in assay [2], 3.77 µM (inactive); in [11] it was 18 µM (inactive). The GI50 in assay [15] is 10.7 µM (inactive); in assay [16] it was 10.9 µM (inactive); in [3], 7.91 µM (inactive); in assay [4], 12.5 µM (inactive); in assay [17] it was 17.8 µM (inactive); in assay [5], 13.2 µM (inactive). The GI50 in [18] is 13.8 µM (inactive); in assay [6], 13.7 µM (inactive); in assay [7], 13.2 µM (inactive); in [9], 8.04 µM (inactive); in [19], 2.42 µM (inactive); in assay [10] it was 12.1 µM (inactive). For the same compound, in [20], the GI50 is 6.18 µM (inactive).

With `COc1cc(C=O)cc(/C=N/c2ccc(Br)cc2)c1O`, the GI50 is 7.59 µM (inactive) in assay [1]; 6.25 µM (inactive) in assay [12]; 1.15 µM (inactive) in [13]; 1.05 µM (active) in assay [14]; 3.2 µM (inactive) in assay [2]; 2.78 µM (inactive) in assay [11]. In addition, the GI50 in assay [15] is 3.72 µM (inactive); in [16], 2.81 µM (inactive); in [3], 14.1 µM (inactive); in assay [4] it was 40.3 µM (inactive); in assay [17], 1.8 µM (inactive); in assay [5], 2.53 µM (inactive). For the same compound, the GI50 in [18] is 2.49 µM (inactive); in [6], 17.7 µM (inactive); in assay [7], 5.75 µM (inactive); in [9], 2.19 µM (inactive); in assay [19], 4.47 µM (inactive); in assay [10], 4.09 µM (inactive). The GI50 in assay [20] was 4.44 µM (inactive).

As to `Cc1cn(C2CC(N(O)Cc3ccccc3)C(CO)O2)c(=O)[nH]c1=O` (stereo unspecified), the GI50 in assay [1], in assay [2], in [3], in assay [4], in assay [5] and in assay [6] was > 100 µM (inactive) in each case. The GI50 in assay [7], in assay [8], in [9] and in [10] was > 100 µM (inactive) throughout.

For `COc1ccc(-c2c(-c3ccccc3)c(C)nc3[nH]c(=S)[nH]c(=S)c23)cc1OC`, the GI50 is 24.7 µM (inactive) in assay [1]; 42.2 µM (inactive) in assay [12]; 38.3 µM (inactive) in assay [13]; 26.9 µM (inactive) in [14]; 21.6 µM (inactive) in [2]; 20.4 µM (inactive) in assay [11]. Also, the GI50 in [15] was 30.1 µM (inactive); in [16], 25.1 µM (inactive); in assay [3], 37.6 µM (inactive); in assay [4] it was 36.3 µM (inactive); in assay [17] it was 35.6 µM (inactive); in [5], 30.3 µM (inactive). Besides, the GI50 in assay [18] is 40.4 µM (inactive); in [6] it was 47.4 µM (inactive); in [7], 36.6 µM (inactive); in assay [9], 28.1 µM (inactive); in assay [19], 33.8 µM (inactive); in assay [10] it was 25.3 µM (inactive). In addition, in assay [20], the GI50 was 26.9 µM (inactive).

`C=COC(=O)N1C2CCCC(Cl)(C(C)=O)C1CC2` (stereo unspecified): the GI50 in [1] was 13.4 µM (inactive); in [12], > 100 µM (inactive); in assay [13], > 100 µM (inactive); in assay [14], 58.9 µM (inactive); in [2] it was > 100 µM (inactive); in assay [11], > 100 µM (inactive). Also, the GI50 in [15] was 79.1 µM (inactive); in [16], > 100 µM (inactive); in assay [3], > 100 µM (inactive); in assay [4], > 100 µM (inactive); in [17], > 100 µM (inactive); in [5], > 100 µM (inactive). Besides, the GI50 in assay [18], in assay [6], in assay [7], in assay [9], in assay [19] and in assay [10] was > 100 µM (inactive) throughout. The GI50 in assay [20] was > 100 µM (inactive).
